pKd: −log10 of the molar value.
Target: T1, BbrY_0420 (SBP of the ABC transporter) (Bifidobacterium breve, UniProt A0AAX3NJV5)
T1 sequence (A0AAX3NJV5 1-449): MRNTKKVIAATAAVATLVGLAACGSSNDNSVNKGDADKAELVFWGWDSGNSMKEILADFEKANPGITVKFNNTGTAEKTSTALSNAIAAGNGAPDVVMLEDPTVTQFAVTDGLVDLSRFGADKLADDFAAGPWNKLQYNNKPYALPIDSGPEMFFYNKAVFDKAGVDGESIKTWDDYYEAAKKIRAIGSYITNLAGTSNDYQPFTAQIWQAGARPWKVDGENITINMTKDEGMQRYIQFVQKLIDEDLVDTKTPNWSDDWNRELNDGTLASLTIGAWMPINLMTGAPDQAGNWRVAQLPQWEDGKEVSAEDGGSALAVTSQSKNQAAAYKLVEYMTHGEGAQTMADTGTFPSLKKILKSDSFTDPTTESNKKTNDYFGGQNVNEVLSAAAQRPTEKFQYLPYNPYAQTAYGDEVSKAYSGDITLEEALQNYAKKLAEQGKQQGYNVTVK
Settings: HBS-P+ buffer, 25 °C, one-site binding model

`OC[C@H]1O[C@@H](O[C@@H]2[C@H](O)[C@@H](O)[C@H](O[C@H]3[C@H](O)[C@@H](O)C(O)O[C@@H]3CO)O[C@@H]2CO)[C@H](O)[C@@H](O)[C@H]1O` (stereo partly shown) [4′-GL, 4′-galactosyllactose] showed a pKd of 4.98.

From article PMC4635504, “Characterization of a bifidobacterial system that utilizes galacto-oligosaccharides” (Microbiology, 2015)
